Reference: patent US7863293B2, “CXCR4 chemokine receptor binding compounds” (Genzyme Corporation, priority 2003, dated 2011)
Read-outs that look alike come from different tables or passages of the source.

Key:
[1] = system: CFU-GM, BFU-E and CFU-GEMM progenitor cells; conditions: 80 μg/kg s.c.; for Fold change compared to T = 0, BFU-E, methylcellulose culture, MEAN / Fold change compared to T = 0, CFU-GEMM, methylcellulose culture, MEAN / Fold change compared to T = 0, CFU-GM, methylcellulose culture, MEAN: average of 5 donors
Procedure: (§1) Five healthy human volunteers having initial white blood cell counts of 4,500-7,500 cells/mm^3 were used in the study. […] Blood samples were obtained via catheter prior to the dose, and at various times up to 24 hours after dosing.
(§2) All progenitor cell results are based on the scoring of 3 culture plates per assay per point.
(§3) For the progenitor cell numbers and cycling status, the numbers of CFU-GM, BFU-E and CFU-GEMM in methylcellulose cultures by stimulation of the cells with 1 Unit (U)/ml recombinant human (rhu) erythropoietin, 100 U/ml rhu granulocyte-macrophage colony stimulating factor (GM-CSF), 100 U/ml rhu interleukin-3 (IL-3) and 50 ng/ml rhu steel factor (SLF=stem cell factor (SCF)). The CFU-GM were also evaluated in agar cultures stimulated with 100 U/ml rhu GM-CSF and 50 ng/ml rhu SLF. For both types of assays, colonies were scored after 14 day incubation in a humidified atmosphere with 5% CO2 and lowered (5%) O2 tension. Cell cycling status of progenitors was measured using a high specific activity tritiated thymidine kill technique as previously described (Broxmeyer, H. E., et al., Exp. Hematol. (1989) 17:455-459).

CFU-GM progenitor cells = conditions: average of 5 donors, 80 μg/kg s.c.
Procedure: as §1, §2, §3

white blood cells = conditions: human volunteers; 80 μg/kg s.c.
Procedure: as §1
The blood samples were evaluated for total white blood cells, CD34 positive progenitor cells (via FACS analysis) as a percentage of total white blood cells, as well as the absolute numbers per mL and cycling status of granulocyte macrophage (CFU-GM), erythroid (BFU-E), and multipotential (CFU-GEMM) progenitor cells.

white blood cell count = conditions: all patients, i.v. 10-80 μg/kg; 5-10 hours after administration
Procedure: Eleven human patients having initial white blood cell counts of 4,000-6,500 cells/mm^3 were used in the study. […] Aliquots from this stock solution were added to 50-ml bags of 0.9% saline for intravenous injection in amounts to achieve the desired dosage levels (10 μg/kg-80 μg/kg).
The subjects described in this example already contained an indwelling peripheral intravenous catheter. […] Blood samples were obtained prior to the dose, and at various times up to 24 hours after dose administration.
Three patients were administered dosages of 10 μg/kg (open circles); 3 patients were administered dosages of 20 μg/kg (solid circles); 3 patients were administered 40 μg/kg (open triangles); and 2 patients were administered 80 μg/kg (closed triangles).

[2] = system: progenitor cells (CFU-GM, BFU-E, CFU-GEMM) per mL of blood; conditions: for Absolute Number Progenitors Per ML Blood, BFU-E / Absolute Number Progenitors Per ML Blood, CFU-GEMM / Absolute Number Progenitors Per ML Blood, CFU-GM: 1 hour post administration; for Absolute Progenitors Per ML Blood, BFU-E / Absolute Progenitors Per ML Blood, CFU-GEMM / Absolute Progenitors Per ML Blood, CFU-GM: 5 mg/Kg single s.c.; for Absolute Progenitors Per ML Blood, BFU-E / Absolute Progenitors Per ML Blood, CFU-GEMM / Absolute Progenitors Per ML Blood, CFU-GM / Fold Change Compared to Time 0, progenitors BFU-E / Fold Change Compared to Time 0, progenitors CFU-GEMM / Fold Change Compared to Time 0, progenitors GM: methylcellulose culture; for Fold Change Compared to Time 0, progenitors BFU-E / Fold Change Compared to Time 0, progenitors CFU-GEMM / Fold Change Compared to Time 0, progenitors GM: mice
Procedure: Progenitors were stimulated to form colonies in vitro with the combination of 1 U/ml rhu Epo, 50 ng/ml rhu SLF, 5% ^Vol/Vol pokeweed mitogen mouse spleen cell conditioned medium (PWMSCM), and 0.1 mM hemin. Plates were scored 7 days after incubation.

[3] = system: WBC and circulating CD34+ progenitor/stem cells; conditions: Phase 1 study, single dose of 80 μg/kg; cited from earlier work
WBC counts = conditions: HIV-infected patients; infusion 2.5 or 5.0 μg/kg/hr
bone marrow stem cells = conditions: rats, coronary ligation; given within hours after cardiac ischemia, with or without rhG-CSF
Procedure: Adult rats are anesthetized and a thoracotomy is performed. The descending branch of the left coronary artery is ligated and not reperfused. […] Control rats are not treated with the reagents. The animals are monitored at one-week intervals by echocardiography and MRI. […] On the day of sacrifice, the hemodynamic functions are analyzed for left ventricle-end diastolic pressure, left ventricle-developed pressure and the rate of rise and fall of left ventricle pressure. The heart is then arrested in diastole and perfused via the abdominal aorta to flush residual blood from the vascular network of the myocardium. […] Several slices are made through the fixed heart and these are embedded in paraffin and sections. The sections are stained and analyzed by light microscopy to determine the size of the infarct in the treated and control animals. […] The immunohistochemical analysis involves the identification of transcription factors and surface markers expressed in early stages of myocyte development.

c1cc(CN2CCCNCCNCCCNCC2)ccc1CN1CCCNCCNCCCNCC1 [AMD3100, 1,1′-[1,4-phenylene-bis(methylene)]-bis-1,4,8,11-tetraazacyclotetradecane]
fold change from T=0, progenitors BFU-E, methylcellulose culture ([1]; P2, T = 1 hour): 1.43 fold
Absolute # of Progenitors per ML, BFU-E ([1]; P4, T = 9 hours): 1343 per ML
Fold change compared to T = 0, BFU-E, methylcellulose culture, MEAN ([1]; T = 1 hour): 1.99 fold
Fold change compared to T = 0, CFU-GEMM, methylcellulose culture, MEAN ([1]; T = 1 hour): 2.32 fold
Fold change compared to T = 0, CFU-GM, methylcellulose culture, MEAN ([1]; T = 1 hour): 4.77 fold
Fold change compared to T = 0, BFU-E, methylcellulose culture, MEAN ([1]; T = 3 hours): 3.21 fold
Fold change compared to T = 0, CFU-GEMM, methylcellulose culture, MEAN ([1]; T = 3 hours): 4.33 fold
Fold change compared to T = 0, CFU-GM, methylcellulose culture, MEAN ([1]; T = 3 hours): 13.66 fold
Fold change compared to T = 0, BFU-E, methylcellulose culture, MEAN ([1]; T = 6 hours): 6.01 fold
Fold change compared to T = 0, CFU-GEMM, methylcellulose culture, MEAN ([1]; T = 6 hours): 10.07 fold
Fold change compared to T = 0, CFU-GM, methylcellulose culture, MEAN ([1]; T = 6 hours): 21.71 fold
Fold change compared to T = 0, BFU-E, methylcellulose culture, MEAN ([1]; T = 9 hours): 4.34 fold
Fold change compared to T = 0, CFU-GEMM, methylcellulose culture, MEAN ([1]; T = 9 hours): 5.25 fold
Fold change compared to T = 0, CFU-GM, methylcellulose culture, MEAN ([1]; T = 9 hours): 10.47 fold
Fold change compared to T = 0, BFU-E, methylcellulose culture, MEAN ([1]; T = 24 hours): 1.26 fold
Fold change compared to T = 0, CFU-GEMM, methylcellulose culture, MEAN ([1]; T = 24 hours): 1.53 fold
Fold change compared to T = 0, CFU-GM, methylcellulose culture, MEAN ([1]; T = 24 hours): 1.56 fold
Fold change compared to T = 0, CFU-GM, agar culture, MEAN (CFU-GM progenitor cells; T = 1 hour): 2.81 fold
Fold change compared to T = 0, CFU-GM, agar culture, MEAN (CFU-GM progenitor cells; T = 3 hours): 8.54 fold
Fold change compared to T = 0, CFU-GM, agar culture, MEAN (CFU-GM progenitor cells; T = 6 hours): 17.93 fold
Fold change compared to T = 0, CFU-GM, agar culture, MEAN (CFU-GM progenitor cells; T = 9 hours): 10.25 fold
Fold change compared to T = 0, CFU-GM, agar culture, MEAN (CFU-GM progenitor cells; T = 24 hours): 2.08 fold
time post-administration at which elevation of white blood cell count maximized (white blood cells): 6 h
change in white blood cell count (white blood cell count): marked increase in white blood cell count
Absolute Number Progenitors Per ML Blood, BFU-E ([2]; 1 mg/kg single s.c.): 62 per ML blood
Absolute Number Progenitors Per ML Blood, CFU-GEMM ([2]; 1 mg/kg single s.c.): 27.1 per ML blood
Absolute Number Progenitors Per ML Blood, CFU-GM ([2]; 1 mg/kg single s.c.): 424 per ML blood
Absolute Number Progenitors Per ML Blood, BFU-E ([2]; 2.5 mg/kg single s.c.): 98.9 per ML blood
Absolute Number Progenitors Per ML Blood, CFU-GEMM ([2]; 2.5 mg/kg single s.c.): 70.6 per ML blood
Absolute Number Progenitors Per ML Blood, CFU-GM ([2]; 2.5 mg/kg single s.c.): 687.6 per ML blood
Absolute Progenitors Per ML Blood, BFU-E ([2]; 15″): 134.5 per ML blood
Absolute Progenitors Per ML Blood, CFU-GEMM ([2]; 15″): 90.4 per ML blood
Absolute Progenitors Per ML Blood, CFU-GM ([2]; 15″): 791.6 per ML blood
Absolute Progenitors Per ML Blood, BFU-E ([2]; 30″): 209.3 per ML blood
Absolute Progenitors Per ML Blood, CFU-GEMM ([2]; 30″): 113.5 per ML blood
Absolute Progenitors Per ML Blood, CFU-GM ([2]; 30″): 1805.5 per ML blood
Absolute Progenitors Per ML Blood, BFU-E ([2]; 120″): 102.3 per ML blood
Absolute Progenitors Per ML Blood, CFU-GEMM ([2]; 120″): 47.6 per ML blood
Absolute Progenitors Per ML Blood, CFU-GM ([2]; 120″): 828.7 per ML blood
Absolute Number Progenitors Per ML Blood, BFU-E ([2]; 5 mg/kg single s.c.): 92.8 per ML blood
Absolute Number Progenitors Per ML Blood, CFU-GEMM ([2]; 5 mg/kg single s.c.): 69.5 per ML blood
Absolute Number Progenitors Per ML Blood, CFU-GM ([2]; 5 mg/kg single s.c.): 608.4 per ML blood
Absolute Number Progenitors Per ML Blood, BFU-E ([2]; 10 mg/kg single s.c.): 120.5 per ML blood
Absolute Number Progenitors Per ML Blood, CFU-GEMM ([2]; 10 mg/kg single s.c.): 79.8 per ML blood
Absolute Number Progenitors Per ML Blood, CFU-GM ([2]; 10 mg/kg single s.c.): 825.6 per ML blood
Fold Change Compared to Time 0, progenitors BFU-E ([2]; time 2′): 2.07 fold
Fold Change Compared to Time 0, progenitors CFU-GEMM ([2]; time 2′): 1.85 fold
Fold Change Compared to Time 0, progenitors GM ([2]; time 2′): 2.86 fold
Fold Change Compared to Time 0, progenitors BFU-E ([2]; time 15″): 2.72 fold
Fold Change Compared to Time 0, progenitors CFU-GEMM ([2]; time 15″): 3.51 fold
Fold Change Compared to Time 0, progenitors GM ([2]; time 15″): 2.73 fold
Fold Change Compared to Time 0, progenitors BFU-E ([2]; time 30″): 4.24 fold
Fold Change Compared to Time 0, progenitors CFU-GEMM ([2]; time 30″): 4.41 fold
Fold Change Compared to Time 0, progenitors GM ([2]; time 30″): 6.23 fold

c1cc(CN2CCCNCCNCCCNCC2)ccc1CN1CCCNCCNCCCNCC1 [AMD-3100]
WBC count [3]: 17,000 /μl
time after discontinuation of the infusion at which WBC counts returned to baseline (WBC counts): 7 days
effect on cardiac remodeling, scar formation and myocardium (bone marrow stem cells): block to cardiac remodeling and scar formation
